Experimental data: ChEMBL document CHEMBL1909046, “DrugMatrix in vitro pharmacology data”

Experiments:
[1] = DRUGMATRIX: Calcium Channel Type L, Phenylalkylamine radioligand binding (ligand: [3H] (-)-Desmethoxyverapamil (D-888)); assay type: cell membranes, Rattus norvegicus, Wistar, Brain, Membrane; details: Not Active = under 50% inhibition at 10 µM
[2] = target: Cytochrome P450 2E1 (Homo sapiens, UniProt P05181); details: bti-tn-5b1-4; also: in other assays of this panel Not Active means under 50% inhibition at 10 µM
[3] = DRUGMATRIX: Atrial Natriuretic Factor (ANF) radioligand binding (ligand: [125I] ANF (rat)); assay type: cell membranes, Cavia porcellus, Dunkin-Hartley, Adrenal gland, Membrane; details: Not Active = under 50% inhibition at 10 µM
[4] = target: T1, 5-hydroxytryptamine receptor 1A (Rattus norvegicus, UniProt P19327); assay type: cell membranes, Membrane; details: cho-k1; also: in other assays of this panel Not Active means under 50% inhibition at 10 µM
T1 sequence (P19327 whole entry): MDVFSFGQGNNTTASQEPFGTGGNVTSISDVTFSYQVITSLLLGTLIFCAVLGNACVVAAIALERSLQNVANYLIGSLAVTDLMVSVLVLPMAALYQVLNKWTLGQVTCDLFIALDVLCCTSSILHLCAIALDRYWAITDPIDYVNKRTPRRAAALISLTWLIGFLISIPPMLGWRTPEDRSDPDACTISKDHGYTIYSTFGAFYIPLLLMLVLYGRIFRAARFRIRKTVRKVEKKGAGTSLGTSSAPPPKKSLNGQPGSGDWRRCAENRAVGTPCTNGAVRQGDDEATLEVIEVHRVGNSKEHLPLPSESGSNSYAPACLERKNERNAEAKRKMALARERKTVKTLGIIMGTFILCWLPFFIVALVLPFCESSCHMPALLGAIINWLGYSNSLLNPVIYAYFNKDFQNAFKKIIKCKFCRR

[5] = target: Mitogen-activated protein kinase 1 (Homo sapiens, UniProt P28482); test: DRUGMATRIX: Protein Serine/Threonine Kinase, ERK2 enzyme inhibition (substrate: Myelin Basic Protein); design: species or system Escherichia coli; details: Not Active = under 50% inhibition at 10 µM
[6] = DRUGMATRIX: Imidazoline I2, Central radioligand binding (ligand: [3H] Idazoxan); assay type: cell membranes, Rattus norvegicus, Wistar, Cerebral cortex, Membrane; details: Not Active = under 50% inhibition at 10 µM
[7] = target: Melanocortin receptor 5 (Homo sapiens, UniProt P33032); assay type: cell membranes, Membrane; details: hek293; also: in other assays of this panel Not Active means under 50% inhibition at 10 µM
Melanocortin receptor 5, sequence (P33032 whole entry): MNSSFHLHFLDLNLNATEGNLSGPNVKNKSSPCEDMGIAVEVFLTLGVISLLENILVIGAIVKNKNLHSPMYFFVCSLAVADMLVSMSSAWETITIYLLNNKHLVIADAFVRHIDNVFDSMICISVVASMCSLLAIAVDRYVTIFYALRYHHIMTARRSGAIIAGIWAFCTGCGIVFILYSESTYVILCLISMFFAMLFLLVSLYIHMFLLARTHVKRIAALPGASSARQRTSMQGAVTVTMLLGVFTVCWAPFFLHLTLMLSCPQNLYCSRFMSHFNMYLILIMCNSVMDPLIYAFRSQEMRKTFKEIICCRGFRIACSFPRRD

Mitogen-activated protein kinase 1, sequence (P28482 whole entry): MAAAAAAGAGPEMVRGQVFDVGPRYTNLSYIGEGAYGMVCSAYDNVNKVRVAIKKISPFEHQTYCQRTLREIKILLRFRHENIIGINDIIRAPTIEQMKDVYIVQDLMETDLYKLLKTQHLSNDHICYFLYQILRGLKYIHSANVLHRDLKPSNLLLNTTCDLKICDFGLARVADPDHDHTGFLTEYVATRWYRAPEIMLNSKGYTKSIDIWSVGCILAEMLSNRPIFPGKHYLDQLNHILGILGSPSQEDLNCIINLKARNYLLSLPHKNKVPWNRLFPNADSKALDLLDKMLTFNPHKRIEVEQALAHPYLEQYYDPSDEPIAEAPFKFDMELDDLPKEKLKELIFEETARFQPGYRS
Cytochrome P450 2E1, sequence (P05181 whole entry): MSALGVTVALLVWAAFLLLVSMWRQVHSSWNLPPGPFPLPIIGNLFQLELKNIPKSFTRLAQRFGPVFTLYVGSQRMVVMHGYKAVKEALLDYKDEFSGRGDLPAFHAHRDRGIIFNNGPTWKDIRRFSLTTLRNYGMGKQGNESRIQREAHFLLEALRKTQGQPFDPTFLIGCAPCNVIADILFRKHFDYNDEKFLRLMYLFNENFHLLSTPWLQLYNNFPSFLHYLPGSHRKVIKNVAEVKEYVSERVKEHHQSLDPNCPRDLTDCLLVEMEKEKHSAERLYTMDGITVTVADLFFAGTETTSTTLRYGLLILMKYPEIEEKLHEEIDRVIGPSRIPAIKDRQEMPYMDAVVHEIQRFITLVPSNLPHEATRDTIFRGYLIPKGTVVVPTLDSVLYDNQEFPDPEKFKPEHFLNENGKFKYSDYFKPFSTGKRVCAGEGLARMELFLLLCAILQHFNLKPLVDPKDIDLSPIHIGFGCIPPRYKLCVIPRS

CN(C)/N=N/c1[nH]cnc1C(N)=O [DACARBAZINE]
Not Active: IC50 [1] | Ki [1] | IC50 [2] | Ki [2] | IC50 [3] | Ki [3] | IC50 [4] | IC50 [5] | IC50 [6] | Ki [6] | IC50 [7]

Oc1ccc(OCc2ccccc2)cc1 [MONOBENZONE]
Not Active: IC50 [1] | Ki [1] | IC50 [2] | Ki [2] | IC50 [3] | Ki [3] | IC50 [4] | IC50 [5] | IC50 [6] | Ki [6] | IC50 [7]

Nc1ccn([C@@H]2CS[C@H](CO)O2)c(=O)n1 [LAMIVUDINE]
Not Active: IC50 [1] | Ki [1] | IC50 [2] | Ki [2] | IC50 [3] | Ki [3] | IC50 [4] | IC50 [5] | IC50 [6] | Ki [6] | IC50 [7]

COc1ccc2c(c1)c(CC(=O)O)c(C)n2C(=O)c1ccc(Cl)cc1 [INDOMETHACIN]
Not Active: IC50 [1] | Ki [1] | IC50 [2] | Ki [2] | IC50 [3] | Ki [3] | IC50 [4] | IC50 [5] | IC50 [6] | Ki [6] | IC50 [7]

CC(C)[C@H]1CC[C@H](C(=O)N[C@H](Cc2ccccc2)C(=O)O)CC1 [NATEGLINIDE]
Not Active: IC50 [1] | Ki [1] | IC50 [2] | Ki [2] | IC50 [3] | Ki [3] | IC50 [4] | IC50 [5] | IC50 [6] | Ki [6] | IC50 [7]

CCCC(=O)Nc1ccc(OCC(O)CNC(C)C)c(C(C)=O)c1 (stereo not given) [ACEBUTOLOL]
Not Active: IC50 [1] | Ki [1] | IC50 [2] | Ki [2] | IC50 [3] | Ki [3] | IC50 [4] | IC50 [5] | IC50 [6] | Ki [6] | IC50 [7]

C[C@]12CC[C@@H]3c4ccc(OC(=O)c5ccccc5)cc4CC[C@H]3[C@@H]1CC[C@@H]2O [ESTRADIOL BENZOATE]
Not Active: IC50 [1] | Ki [1] | IC50 [2] | Ki [2] | IC50 [3] | Ki [3] | IC50 [4] | IC50 [5] | IC50 [6] | Ki [6] | IC50 [7]

CC1(C)O[C@@H]2C[C@H]3[C@@H]4C[C@H](F)C5=CC(=O)C=C[C@]5(C)[C@H]4[C@@H](O)C[C@]3(C)[C@]2(C(=O)CO)O1 [FLUNISOLIDE]
Not Active: IC50 [1] | Ki [1] | IC50 [2] | Ki [2] | IC50 [3] | Ki [3] | IC50 [4] | IC50 [5] | IC50 [6] | Ki [6] | IC50 [7]

CC1=C(C(=O)O)N2C(=O)[C@@H](NC(=O)[C@H](N)c3ccccc3)[C@H]2SC1 [CEPHALEXIN ANHYDROUS]
Not Active: IC50 [1] | Ki [1] | IC50 [2] | Ki [2] | IC50 [3] | Ki [3] | IC50 [4] | IC50 [5] | IC50 [6] | Ki [6] | IC50 [7]

COC(=O)C1=C(C)NC(C)=C(C(=O)OCC(C)C)C1c1ccccc1[N+](=O)[O-] (stereo not given) [NISOLDIPINE]
Not Active: IC50 [1] | Ki [1] | IC50 [2] | Ki [2] | IC50 [3] | Ki [3] | IC50 [4] | IC50 [5] | IC50 [6] | Ki [6] | IC50 [7]

CC(=O)Nc1ccc(O)cc1 [ACETAMINOPHEN]
Not Active: IC50 [1] | Ki [1] | IC50 [2] | Ki [2] | IC50 [3] | Ki [3] | IC50 [4] | IC50 [5] | IC50 [6] | Ki [6] | IC50 [7]

CCc1c2c(nc3ccc(OC(=O)N4CCC(N5CCCCC5)CC4)cc13)-c1cc3c(c(=O)n1C2)COC(=O)[C@]3(O)CC [IRINOTECAN]
Not Active: IC50 [1] | Ki [1] | IC50 [2] | Ki [2] | IC50 [3] | Ki [3] | IC50 [4] | IC50 [5] | IC50 [6] | Ki [6] | IC50 [7]

C[C@]12CC[C@@H]3c4ccc(O)cc4CC[C@H]3[C@@H]1CC[C@@H]2O [ESTRADIOL]
Not Active: IC50 [1] | Ki [1] | IC50 [2] | Ki [2] | IC50 [3] | Ki [3] | IC50 [4] | IC50 [5] | IC50 [6] | Ki [6] | IC50 [7]

C#C[C@]1(OC(C)=O)CC[C@H]2[C@@H]3CCC4=CC(=O)CC[C@@H]4[C@H]3CC[C@@]21C [NORETHINDRONE ACETATE]
Not Active: IC50 [1] | Ki [1] | IC50 [2] | Ki [2] | IC50 [3] | Ki [3] | IC50 [4] | IC50 [5] | IC50 [6] | Ki [6] | IC50 [7]

N=C(Nc1ccccc1)Nc1ccccc1
Not Active: IC50 [1] | Ki [1] | IC50 [2] | Ki [2] | IC50 [3] | Ki [3] | IC50 [4] | IC50 [5] | IC50 [6] | Ki [6] | IC50 [7]

ClC(Cl)Cl [CHLOROFORM]
Not Active: IC50 [1] | Ki [1] | IC50 [2] | Ki [2] | IC50 [3] | Ki [3] | IC50 [4] | IC50 [5] | IC50 [6] | Ki [6] | IC50 [7]

N=C(N)NC(=O)c1nc(Cl)c(N)nc1N [AMILORIDE]
Not Active: IC50 [1] | Ki [1] | IC50 [2] | Ki [2] | IC50 [3] | Ki [3] | IC50 [4] | IC50 [5] | IC50 [6] | Ki [6] | IC50 [7]

CCN1CC(CCN2CCOCC2)C(c2ccccc2)(c2ccccc2)C1=O (stereo not given) [DOXAPRAM]
Not Active: IC50 [1] | Ki [1] | IC50 [2] | Ki [2] | IC50 [3] | Ki [3] | IC50 [4] | IC50 [5] | IC50 [6] | Ki [6] | IC50 [7]

Cc1ccc(S(=O)(=O)NC(=O)NN2CC3CCCC3C2)cc1 (stereo not given) [GLICLAZIDE]
Not Active: IC50 [1] | Ki [1] | IC50 [2] | Ki [2] | IC50 [3] | Ki [3] | IC50 [4] | IC50 [5] | IC50 [6] | Ki [6] | IC50 [7]

COc1cccc2c1C(=O)c1c(O)c3c(c(O)c1C2=O)C[C@@](O)(C(=O)CO)C[C@@H]3O[C@H]1C[C@H](N)[C@H](O)[C@H](C)O1 [DOXORUBICIN]
Not Active: IC50 [1] | Ki [1] | IC50 [2] | Ki [2] | IC50 [3] | Ki [3] | IC50 [4] | IC50 [5] | IC50 [6] | Ki [6] | IC50 [7]
